Test results from ChEMBL document CHEMBL1275248, “Two novel antibiotic resistance genes, tet(44) and ant(6)-Ib, are located within a transferable pathogenicity island in Campylobacter fetus subsp. fetus” (2010).

Tests used:
[1] = Antimicrobial activity against nalidixic acid-resistant Campylobacter fetus subsp. fetus IMD523-06 bovine isolate harboring tet(44) and ant(6)-Ib resistance gene in presence of 5% lacked horse blood; assay type: functional
[2] = Antimicrobial activity against Campylobacter fetus subsp. fetus CA73 harboring pCA73 carrying tet(44) resistance gene of 1516477 in presence of 5% lacked horse blood; assay type: functional
[3] = Antimicrobial activity against kanamycin-resistant Campylobacter fetus subsp. fetus CA74 harboring deletion in tet(44)::pCA64 resistant gene in presence of 5% lacked horse blood; assay type: functional
[4] = Antimicrobial activity against Campylobacter fetus subsp. fetus CA75 harboring pCA75 carrying ant(6)-Ib resistant gene of 1516477 in presence of 5% lacked horse blood; assay type: functional
[5] = Antimicrobial activity against kanamycin-resistant Campylobacter fetus subsp. fetus CA76 harboring deletion in ant(6)-Ib::pCA76 in presence of 5% lacked horse blood; assay type: functional
[6] = Antimicrobial activity against Campylobacter fetus subsp. fetus CA80 harboring ciprofloxacin-resistant gene and IMD523-06 pathogenicity island with tet(44) and ant(6)-Ib resistant marker gene in presence of 5% lacked horse blood; assay type: functional
[7] = Antimicrobial activity against ciprofloxacin-resistant Campylobacter fetus subsp. fetus 1516477 human isolate lacking tet(44) and ant(6)-Ib resistance genes in presence of 5% lacked horse blood

SMILES	MIC [1] [µg/mL]	MIC [2] [µg/mL]	MIC [3] [µg/mL]	MIC [4] [µg/mL]	MIC [5] [µg/mL]	MIC [6] [µg/mL]	MIC [7] [µg/mL]
C[C@H]1c2cccc(O)c2C(=O)C2=C(O)[C@]3(O)C(=O)C(C(N)=O)=C(O)[C@@H](N(C)C)[C@@H]3[C@@H](O)[C@@H]21.O [DOXYCYCLINE]	8	32	0.5	0.5	8	4	0.5
CN(C)c1ccc(O)c2c1C[C@H]1C[C@H]3[C@H](N(C)C)C(O)=C(C(N)=O)C(=O)[C@@]3(O)C(O)=C1C2=O [MINOCYCLINE]	16	32	2	1	16	16	1
CN(C)[C@@H]1C(O)=C(C(N)=O)C(=O)[C@@]2(O)C(O)=C3C(=O)c4c(O)cccc4[C@@](C)(O)[C@H]3C[C@@H]12 [TETRACYCLINE]	16	> 32	1	1	16	16	1
CN[C@@H]1[C@H](O[C@H]2[C@H](O[C@H]3[C@H](O)[C@@H](O)[C@H](N=C(N)N)[C@@H](O)[C@@H]3N=C(N)N)O[C@@H](C)[C@]2(O)C=O)O[C@@H](CO)[C@H](O)[C@H]1O [STREPTOMYCIN]	> 64	≤ 1	> 64	64	≤ 1	64	≤ 1
